Measurements taken from US20260232578A1, “COMPOSITIONS AND METHODS FOR TRANSMUCOSAL ABSORPTION” (Tonix Pharma Limited, priority 2012, published 2026).
Where a name gives a salt, the structure may show the parent alone.

How the values were obtained:
[1] = Stress stability at 50° C., purity profile; format: physicochemical
Protocol: In order to evaluate the stability of the formulations described above, prototype A, B, C, D were maintained under the 50° C. stress condition for 30 days.

[2] = biological target: T1, adrenergic alpha-2A receptor (Alpha2A) (Homo sapiens, UniProt P08913); test: Equilibrium receptor binding, recombinant human receptor
T1 construct: expressed in transfected cells
T1 sequence (P08913 1-465): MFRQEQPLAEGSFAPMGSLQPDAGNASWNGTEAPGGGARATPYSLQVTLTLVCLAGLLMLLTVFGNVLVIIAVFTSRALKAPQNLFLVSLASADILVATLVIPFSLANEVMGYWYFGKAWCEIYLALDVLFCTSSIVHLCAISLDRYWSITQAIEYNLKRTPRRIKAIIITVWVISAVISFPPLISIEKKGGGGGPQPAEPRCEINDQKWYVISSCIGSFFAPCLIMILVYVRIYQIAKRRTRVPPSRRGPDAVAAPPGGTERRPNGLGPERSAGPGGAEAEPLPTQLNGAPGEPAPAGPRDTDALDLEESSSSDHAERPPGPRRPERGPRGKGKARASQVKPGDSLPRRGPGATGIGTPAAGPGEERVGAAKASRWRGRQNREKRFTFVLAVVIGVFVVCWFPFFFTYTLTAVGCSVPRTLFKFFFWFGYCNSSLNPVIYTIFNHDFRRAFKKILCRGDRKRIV

[3] = biological target: T2, adrenergic alpha-2C receptor (Alpha2C) (Homo sapiens, UniProt P18825); test: as above
T2 construct: expressed in transfected cells
T2 sequence (P18825 1-462): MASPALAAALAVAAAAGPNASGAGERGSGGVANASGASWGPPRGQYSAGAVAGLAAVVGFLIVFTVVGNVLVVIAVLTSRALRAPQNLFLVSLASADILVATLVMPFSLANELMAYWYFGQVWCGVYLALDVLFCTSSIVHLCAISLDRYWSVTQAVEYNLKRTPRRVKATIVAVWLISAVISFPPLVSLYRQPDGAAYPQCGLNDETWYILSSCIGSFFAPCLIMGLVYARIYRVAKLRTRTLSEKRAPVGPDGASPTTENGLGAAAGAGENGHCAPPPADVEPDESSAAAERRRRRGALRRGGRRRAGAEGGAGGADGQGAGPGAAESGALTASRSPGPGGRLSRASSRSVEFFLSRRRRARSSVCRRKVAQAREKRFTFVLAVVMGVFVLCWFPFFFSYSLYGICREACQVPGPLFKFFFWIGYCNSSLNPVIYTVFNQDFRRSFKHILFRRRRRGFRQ

5-HT1A receptor = biological target: T3, 5-HT1A receptor (Homo sapiens, UniProt P08908); test: as above
T3 construct: expressed in transfected cells
T3 sequence (P08908 1-422): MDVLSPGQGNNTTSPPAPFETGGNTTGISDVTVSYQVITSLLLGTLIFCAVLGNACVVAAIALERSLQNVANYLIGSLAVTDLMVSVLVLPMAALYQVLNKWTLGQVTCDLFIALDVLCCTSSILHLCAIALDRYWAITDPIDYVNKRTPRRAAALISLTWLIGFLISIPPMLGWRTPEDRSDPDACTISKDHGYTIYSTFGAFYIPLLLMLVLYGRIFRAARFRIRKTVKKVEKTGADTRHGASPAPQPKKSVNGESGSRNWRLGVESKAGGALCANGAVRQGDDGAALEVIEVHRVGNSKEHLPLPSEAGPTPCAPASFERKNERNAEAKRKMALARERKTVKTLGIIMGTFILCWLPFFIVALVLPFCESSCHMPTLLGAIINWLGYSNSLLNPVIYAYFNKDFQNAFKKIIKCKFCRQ

5-HT2C receptor = biological target: T4, 5-HT2C receptor (Homo sapiens, UniProt P28335); test: as above
T4 construct: expressed in transfected cells
T4 sequence (P28335 33-458): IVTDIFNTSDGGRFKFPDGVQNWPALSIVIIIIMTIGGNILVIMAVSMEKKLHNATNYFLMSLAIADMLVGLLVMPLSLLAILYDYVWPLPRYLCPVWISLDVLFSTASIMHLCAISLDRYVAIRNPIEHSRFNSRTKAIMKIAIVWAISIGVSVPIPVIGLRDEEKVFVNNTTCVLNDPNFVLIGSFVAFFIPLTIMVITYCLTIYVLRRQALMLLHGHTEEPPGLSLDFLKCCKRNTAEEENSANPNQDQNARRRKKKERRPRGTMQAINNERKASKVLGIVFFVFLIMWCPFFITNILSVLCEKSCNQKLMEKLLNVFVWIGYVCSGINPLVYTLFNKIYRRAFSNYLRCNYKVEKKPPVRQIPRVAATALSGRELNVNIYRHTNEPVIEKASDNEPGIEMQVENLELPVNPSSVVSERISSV

muscarinic M2 receptor = muscarinic M2 receptor (Homo sapiens, UniProt P08172); test: as above; set-up: expressed in transfected cells
[4] = T0, samples stored at room temperature
[5] = T15days, active ingredient without excipients

muscarinic M2 receptor, sequence (P08172 whole entry): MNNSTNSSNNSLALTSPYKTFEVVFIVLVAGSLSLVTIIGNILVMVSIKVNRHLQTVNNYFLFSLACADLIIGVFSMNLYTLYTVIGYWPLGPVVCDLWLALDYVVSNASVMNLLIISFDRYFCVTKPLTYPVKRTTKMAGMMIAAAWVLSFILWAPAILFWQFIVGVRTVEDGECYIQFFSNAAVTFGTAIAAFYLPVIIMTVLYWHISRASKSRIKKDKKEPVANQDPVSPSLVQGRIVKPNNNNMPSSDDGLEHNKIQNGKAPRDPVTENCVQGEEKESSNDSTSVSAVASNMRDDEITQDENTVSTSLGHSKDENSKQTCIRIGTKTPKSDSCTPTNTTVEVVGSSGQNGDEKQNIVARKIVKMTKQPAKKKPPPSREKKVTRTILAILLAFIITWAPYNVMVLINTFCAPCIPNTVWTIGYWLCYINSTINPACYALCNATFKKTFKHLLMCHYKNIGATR

Ki (muscarinic M2 receptor) | Compound | Impurity 1 (Dibenzosuberenone, RT = about 56′) [1, 4] | Impurity 2 (Carbinole, RT = about 6′) [1, 4] | Impurity 4 (Amitriptyline, RT = about 15′) [1, 4] | Total Impurities [1, 4] | Unknown 1 (RT = about 16′) [1, 4] | Unknown 2 (RT = about 17.5′) [1, 4] | Unknown 3 (RT = about 7.5′) [1, 4] | Impurity 1 (Dibenzosuberenone, RT = about 56′) [1, 5] | Impurity 2 (Carbinole, RT = about 6′) [1, 5] | Impurity 4 (Amitriptyline, RT = about 15′) [1, 5] | Total Impurities [1, 5] | Unknown 1 (RT = about 16′) [1, 5] | Unknown 2 (RT = about 17.5′) [1, 5] | Unknown 3 (RT = about 7.5′) [1, 5] | Ki [2] | Ki [3] | Ki (5-HT1A receptor) | Ki (5-HT2C receptor)
– | CN(C)CCC=C1c2ccccc2C=Cc2ccccc21 [Cyclobenzaprine HCl (Dipharma)] | Absent | Absent | Absent | 0.005% | 0.005% | Absent | 0.028% | Absent | Absent | Absent | 0.003% | Absent | 0.003% | 0.008% | – | – | – | –
– | CN(C)CCC=C1c2ccccc2C=Cc2ccccc21 [Cyclobenzaprine HCl (Sifavitor)] | Absent | Absent | Absent | 0.020% | 0.020% | Absent | Absent | Absent | Absent | Absent | 0.019% | Absent | 0.019% | Absent | – | – | – | –
– | CN(C)CCC=C1c2ccccc2CCc2ccccc21 [amitriptyline, 3-(10,11-dihydro-5H-dibenzo [a,d]cycloheptene-5-ylidene)-N,N-dimethyl-1-propanamine] | – | – | – | – | – | – | – | – | – | – | – | – | – | – | 250 nM | 14 nM | 220 nM | 28 nM
140 nM | CNCCC=C1c2ccccc2CCc2ccccc21 [nortriptyline] | – | – | – | – | – | – | – | – | – | – | – | – | – | – | – | – | 100 nM | –
